The source of these data is patent US20110171666A1, “PEPTIDE-LIPID CONSTRUCTS AND THEIR USE IN DIAGNOSTIC AND THERAPEUTIC APPLICATIONS” (priority 2007, published 2011).

Groups on a side chain read outwards from the residue. Primed or numbered codes have the meaning given here. No end group written: not given here. *: point of attachment. DOPE = CCCCCCCC/C=C\CCCCCCCC(=O)OC[C@H](COP(=O)(O)OCCN*)OC(=O)CCCCCCC/C=C\CCCCCCCC; S1 PEG = not defined here; PEG6′ = not defined here; Mal = not defined here; Mal″ = maleimide; βAla = NCCC(=O)O

Assay [1] has as its system sera reactive with modified RBCs. Briefly: Neutralisation of reactive sera with peptide and retest against modified RBCs (BioVue cards). In kind it is cell-based, human. On the set-up: key: 0 or ‘−’=no agglutination; 0 or ‘−’=no agglutination; 1+ or 3=very weak agglutination; 1+ or 3=very weak agglutination; 2+ or 5=weak agglutination; 2+ or 5=weak agglutination; 3+ or 8=moderate strong agglutination; 3+ or 8=moderate strong agglutination; 4+ or 10/12=strong agglutination; 4+ or 10/12=strong agglutination; 4+ or 10/12=strong agglutination. Particulars: for reactivity score, serum + peptide: RBCs modified at 500 μg/ml (Method 1). As to the method: (§1) The suspensions are either: • 1. incubated for 2 hours at 37° C. before being washed and suspended in a cell medium for serological analysis at a concentration of 0.8 to 3% (Method 1); or • 2. incubated for 3 to 4 hours at room temperature (circa 25° C.) followed by 18 hours at 4° C. before being washed and suspended in a cell medium for serological analysis at a concentration of 0.8 to 3% (Method 2).
(§2) Serological reactions are graded or scored by either of two established systems (0 or ‘−’=no agglutination, 1+ or 3=very weak agglutination, 2+ or 5=weak agglutination, 3+ or 8=moderate strong agglutination, 4+ or 10/12=strong agglutination)
(§3) Serological platforms used are Tube (addition of reagents and reactants into plastic or glass serology tubes and after appropriate incubations, washing and centrifugation observing reactions macroscopically by eye and a 10× magnification eyepiece and scoring) and BioVue™ (addition of reactants into cassettes containing beads (including some reactants) and after appropriate incubations and centrifugation observing the reaction patterns traped within the Gel matrix). BioVue is the serological column agglutination platform of Ortho-Clinical Diagnostics.
Where false positives were observed these could be substantially eliminated by pre-treatment of the sample of serum with the peptide of the peptide-lipid constructs (Table 10 and 11).

Assay [2] relates to Miltenberger Antibody Positive Panel (polyclonal sera and monoclonal antibodies). Briefly: Reactivity of construct-modified RBCs against the Miltenberger Antibody Positive Panel. The class given is cell-based, human. More on the design: key: 0 or ‘−’=no agglutination; 0 or ‘−’=no agglutination; 1+ or 3=very weak agglutination; 1+ or 3=very weak agglutination; 2+ or 5=weak agglutination; 2+ or 5=weak agglutination; 3+ or 8=moderate strong agglutination; 3+ or 8=moderate strong agglutination; 4+ or 10/12=strong agglutination; 4+ or 10/12=strong agglutination; 4+ or 10/12=strong agglutination. As to the method:
Red blood cells are modified by mixing 1 part by volume of washed packed red blood cells with 1 part by volume of peptide-lipid construct dispersed at a concentration of 10 to 1000 μg/ml in cell media (Celpresol™).
as §1, §2, §3

[3] abbreviates: MUT constructs, μg/ml used: M1 500, M2 500, M3 1000, M13 250, M21 200.
Where [4] appears, read: MUR constructs, RBCs modified at 100 ug/ml.

For “DOPE-PEG6-βAla-Mal-13MUTK (SSQTNDKHKRDTYC([Mal-βAla-PEG6′-DOPE]); reading uncertain; also: printed as DOPE-PEG6-βAla-Mal-13MUTK) [M13]”, in assay [1] (serum #3, RBCs modified at 500 μg/ml (Method 1)), the “reactivity score, serum alone” value amounted to 8. Besides, in assay [1] (serum #3 neutralised with peptide SSQTNDKHKRDTY), the “reactivity score, serum + peptide” value amounted to 0. Besides, the “reactivity score, serum alone” value in assay [1] (serum #34, RBCs modified at 500 μg/ml (Method 1)) turned out to be 8. Further, the “reactivity score, serum + peptide” value in assay [1] (serum #34 neutralised with peptide SSQTNDKHKRDTY) was determined as 0. Further, the “reactivity score, serum alone” value in assay [1] (serum #37, RBCs modified at 500 μg/ml (Method 1)) came to 8. Also, the “reactivity score, serum + peptide” value in assay [1] (serum #37 neutralised with peptide SSQTNDKHKRDTY) is on record as 0. Also, the “reactivity score, serum alone” value in assay [1] (serum #42, RBCs modified at 500 μg/ml (Method 1)) is 8. The “reactivity score, serum + peptide” value in assay [1] (serum #42 neutralised with peptide SSQTNDKHKRDTY) was determined as 0. In assay [2] (setting [3]), the “reactivity score of modified RBCs vs 2 T217” value (“reactivity score … vs 2 T217” for short) is reported as 8, the “reactivity score of modified RBCs vs 3 T165” value (shortened to “reactivity score … vs 3 T165”) is given as 0, the “reactivity score of modified RBCs vs 4 T7202” value (“reactivity score … vs 4 T7202” below) is given as 8 and the “reactivity score of modified RBCs vs 6 T6025” value (shortened to “reactivity score … vs 6 T6025”) is 8. In addition, in assay [2] (setting [3]), the “reactivity score of modified RBCs vs 7 T8445” value (“reactivity score … vs 7 T8445” for short) worked out at 0, the “reactivity score of modified RBCs vs 8 T5896” value (“reactivity score … vs 8 T5896” below) was found to be 3, the “reactivity score of modified RBCs vs 9 MIII monoclonal antibody” value worked out at 0 and the “reactivity score of modified RBCs vs 10 Mia monoclonal antibody” value was 0. In addition, in assay [2] (setting [3]), the “reactivity score of modified RBCs vs 11 Mur monoclonal antibody” value is on record as 0, the “reactivity score of modified RBCs vs 12 Gam monoclonal antibody” value worked out at 0 and the “reactivity score of modified RBCs vs 13 BoxH” value was 8.
As for “DOPE-PEG6-βAla-Mal-18Mur (PAHTANEVC([Mal″-βAla-PEG6′-DOPE])) [M18]”, in assay [2] (setting [4]), the “reactivity score … vs 2 T217” value was determined as 0, the “reactivity score … vs 3 T165” value is 10, the “reactivity score … vs 4 T7202” value worked out at 0 and the “reactivity score … vs 6 T6025” value came out at 10. In assay [2] (setting [4]), the “reactivity score … vs 7 T8445” value came out at 8, the “reactivity score … vs 8 T5896” value turned out to be 0, the “reactivity score of modified RBCs vs 9 MIII monoclonal antibody” value amounted to 0 and the “reactivity score of modified RBCs vs 10 Mia monoclonal antibody” value was 0. In assay [2] (setting [4]), the “reactivity score of modified RBCs vs 11 Mur monoclonal antibody” value came to 0 and the “reactivity score of modified RBCs vs 12 Gam monoclonal antibody” value amounted to 0.
Regarding “DOPE-PEG6-βAla-Mal-21MUTK (SQTNDKHKRDC([Mal″-βAla-PEG6′-DOPE])) [M21]”, in assay [2] (setting [3]), the “reactivity score … vs 2 T217” value is 0, the “reactivity score … vs 3 T165” value came to 8, the “reactivity score … vs 4 T7202” value is on record as 0 and the “reactivity score … vs 6 T6025” value stood at 8. Also, in assay [2] (setting [3]), the “reactivity score … vs 7 T8445” value was 0, the “reactivity score … vs 8 T5896” value is listed as 0, the “reactivity score of modified RBCs vs 9 MIII monoclonal antibody” value is reported as 0 and the “reactivity score of modified RBCs vs 10 Mia monoclonal antibody” value worked out at 0. Also, in assay [2] (setting [3]), the “reactivity score of modified RBCs vs 11 Mur monoclonal antibody” value worked out at 0, the “reactivity score of modified RBCs vs 12 Gam monoclonal antibody” value is reported as 3 and the “reactivity score of modified RBCs vs 15 TAP2” value was 5.
In the case of “M16: DOPE peptide-lipid construct, Mur peptide ThrTyrProAlaHisThrAlaAsnGluVal with terminal Cys, S1 PEG (Table 7) (TYPAHTANEVC([S1 PEG-DOPE]); reading uncertain)”, in assay [2] (setting [4]), the “reactivity score … vs 2 T217” value is 0, the “reactivity score … vs 3 T165” value worked out at 10, the “reactivity score … vs 4 T7202” value is 5 and the “reactivity score … vs 6 T6025” value amounted to 5. Further, in assay [2] (setting [4]), the “reactivity score … vs 7 T8445” value stood at 12, the “reactivity score … vs 8 T5896” value is 0, the “reactivity score of modified RBCs vs 9 MIII monoclonal antibody” value is reported as 0 and the “reactivity score of modified RBCs vs 10 Mia monoclonal antibody” value was 0. In assay [2] (setting [4]), the “reactivity score of modified RBCs vs 11 Mur monoclonal antibody” value is listed as 0, the “reactivity score of modified RBCs vs 12 Gam monoclonal antibody” value came out at 0 and the “reactivity score of modified RBCs vs 13 BoxH” value is listed as 0.
